Reference: publication PMC11317440, “Soloxolone para-methylanilide effectively suppresses aggressive phenotype of glioblastoma cells including TGF-β1-induced glial-mesenchymal transition in vitro and inhibits growth of U87 glioblastoma xenografts in mice” (Frontiers in Pharmacology, 2024)

Tested on: U87 glioblastoma cells
Experiment: MTT cell viability assay, U87 cells, 48 h
Type: cell-based, human
Procedure: Cells were seeded in quadruplicate in 96-well plates at 10,000 cells/well and allowed to adhere overnight. The medium was then replaced with serum-free DMEM containing increasing concentrations of soloxolone amides for 48 h. After incubation, 3-(4,5-dimethylthiazol-2-yl)-2,5-diphenyltetrazolium bromide (MTT dye) was added at a final concentration of 0.5 mg/mL and left for 2 h. The resulting formazan crystals were dissolved in DMSO and the optical density was measured at 570 nm using a Multiscan RC plate reader (Thermo LabSystems, Helsinki, Finland).

Cc1ccc(NC(=O)[C@@]2(C)CC[C@]3(C)CC[C@]4(C)[C@H](C(=O)C=C5[C@@]6(C)C=C(C#N)C(=O)C(C)(C)C6CC[C@]54C)[C@@H]3C2)cc1 (stereo partly drawn) [compound 7, N-p-tolyl-2-cyano-3,12-dioxo-18βH-olean-9(11),1(2)-dien-30-amide]
relative cytotoxicity (48 h of incubation, U87): high | IC50 (Homo sapiens, U-87 MG, 48 h): 161 nM | MNTC (Homo sapiens, U-87 MG, 48 h, read-out: non-toxic concentration that reduced U87 cell viability by less than 10%): 50 nM
